In brackets after ≈: the same amount, converted by molar mass. Where two headings read alike, the source gives them in different places.
What was measured:
[1] = biological target: K. pneumoniae LpxH (KpLpxH) (Klebsiella pneumoniae subsp. pneumoniae (strain ATCC 700721 / MGH 78578), UniProt A6T5R0); assay: LpxE-coupled malachite green LpxH activity assay (KpLpxH inhibition); format: biochemical; conditions: for Percentage Activity of KpLpxH (vi/v0) / remaining activity at 0.1 µM / inhibition at 0.1 µM: 0.1 μM inhibitor; for Percentage Activity of KpLpxH (vi/v0) / remaining activity at 0.1 µM: normalized against KpLpxH activity in 10% DMSO; for remaining activity at 0.1 µM: read-out: Percentage Activity of KpLpxH (vi/v0); for inhibition at 0.1 µM: read-out: Percentage Inhibition of KpLpxH
Protocol: Evaluation of LpxH inhibition by analogs: After completing the synthesis of sulfonyl piperazine compounds with various forms of linkers, the KpLpxH inhibition was biochemically characterized by these analogs at 0.1 μM using the nonradioactive, colorimetric malachite green assay that we had previously reported. […] Such an enhanced potency requires the presence of the hydroxamate group, as its substitution with a carboxylate group in compound 7 reduced the compound activity (vi/v0=30±6%).
The LpxE-coupled LpxH activity assay was conducted as described previously using the GB1-K. pneumoniae LpxH-His10 fusion protein. Briefly, two reaction mixtures were prepared. Mixture 1 contains 20 mM Tris-HCl (pH 8.0), 0.5 mg/mL BSA, 0.02% Triton X-100, 1 mM MnCl2, 1 mM DTT, 10% DMSO, and 200 µM substrate (UDP-DAGn), and mixture 2 is comprised of the same buffer, but instead of substrate, contains both LpxH (20 ng/ml) and 2× inhibitor. These mixtures were then pre-incubated at 37° C. for 10 min. To initiate the reaction, an equal volume of the LpxH mixture (mixture 2) was added to the substrate mixture (mixture 1) at 37° C. The final reaction solution contains 100 μM substrate, 10 ng/ml enzyme, and 1× inhibitor. At the desired reaction time points, an aliquot of 20 μL reaction mixture was removed and added to a well in 96-well half-area plate containing 5 mM EDTA (final concentration) to quench the LpxH reaction. Purified Aquifex aeolicus LpxE was then added to a final concentration of 5 μg/mL. The plate was incubated at 37° C. for 30 min followed by addition of formic acid to a final concentration of 3.75 M to quench the LpxE reaction. The malachite green reagent (Sigma Aldrich, catalog MAK307) was diluted 5-fold into the solutions, and the plate was incubated for 30 min at room temperature before the absorbance at 620 nm was measured. All measurements were done in triplicates, and standard error (S.E.) was calculated.

[2] = tested on: K. pneumoniae (ATCC 10031); assay: MIC assay (broth microdilution), K. pneumoniae; format: cell-based; conditions: Klebsiella pneumoniae, ATCC10031
Protocol: The MIC assay protocol was adapted from the broth microdilution methods described by the National Committee for Clinical Laboratory Standards using 96-well plates as described previously. In brief, overnight bacterial cultures were diluted to an OD600 of 0.006 in cation-adjusted Mueller-Hinton medium containing 7% DMSO and incubated at 37° C. for 22 h in the presence of varying concentrations of inhibitors. Following overnight incubation, each well is treated with 10 μL of 3-(4,5-dimethylthiazol-2-yl)-2,5-diphenyltetrazolium bromide (MTT, 5 mg/mL) for 3 h. Finally, the culture is solubilized by addition of 2-propanol, and the results are read by taking the difference of the UV reading at both 570 and 690 nm. MIC values were reported as the lowest compound concentration that inhibited bacterial growth. The baseline for inhibited cell growth was determined to be <4× the average control reading due to the baseline optical density of the initial starting bacterial culture.

[3] = Table 5, read-out: IC50: Average
[4] = Table 4, read-out: MIC - K. pneumoniae (ATCC 10031)

| SMILES | IC50 [1, 3] [nM] | MIC [2, 4] [µg/mL] | further results |
| --- | --- | --- | --- |
| CC(=O)N1CCc2cc(S(=O)(=O)N3CCN(c4cc(C(F)(F)F)cc(Cl)n4)CC3)ccc21 [JH-LPH-92] | 5 | 0.063 (≈ 0.129 µM) | – |
| O=C(CCCCNC(=O)N1CCc2cc(S(=O)(=O)N3CCN(c4cc(C(F)(F)F)cc(Cl)n4)CC3)ccc21)NO [JH-LPH-96] | 2 | 0.83 (≈ 1.37 µM) | – |
| O=C(O)CCCCNC(=O)N1CCc2cc(S(=O)(=O)N3CCN(c4cc(Cl)cc(C(F)(F)F)c4)CC3)ccc21 [JH-LPH-55] | – | – | Percentage Activity of KpLpxH (vi/v0) ([1]; listed as 7 (JH-LPH-55)): 30 ± 6%; remaining activity at 0.1 µM [1]: 30 ± 6%; inhibition at 0.1 µM [1]: 70% |
| O=C(NCCn1cc(C(=O)NO)nn1)Nc1ccc(S(=O)(=O)N2CCN(c3cc(Cl)cc(C(F)(F)F)c3)CC2)cc1 [JH-LPH-62] | – | 24 (≈ 38.9 µM) | Percentage Activity of KpLpxH (vi/v0) ([1]; listed as 20 (JH-LPH-62)): 59 ± 7%; remaining activity at 0.1 µM [1]: 59 ± 7%; inhibition at 0.1 µM [1]: 41% |
| O=C(CC/C=C/CCC(=O)Nc1ccc(S(=O)(=O)N2CCN(c3cc(Cl)cc(C(F)(F)F)c3)CC2)cc1)NO [JH-LPH-66] | – | 26.7 (≈ 45.3 µM) | – |
| O=C(NCCCCc1cccn(O)c1=S)Nc1ccc(S(=O)(=O)N2CCN(c3cc(Cl)cc(C(F)(F)F)c3)CC2)cc1 [JH-LPH-60] | – | – | Percentage Activity of KpLpxH (vi/v0) ([1]; listed as 15 (JH-LPH-60)): 39 ± 6%; remaining activity at 0.1 µM [1]: 39 ± 6%; inhibition at 0.1 µM [1]: 61% |
| NC(=O)N1CCc2cc(S(=O)(=O)N3CCN(c4cc(Cl)cc(C(F)(F)F)c4)CC3)c(Cl)cc21 [JH-LPH-76] | – | > 64 | – |
| CC(=O)N1CCc2cc(S(=O)(=O)N3CCN(C4CCCCC4)CC3)ccc21 [JH-LPH-81] | – | 32 (≈ 81.7 µM) | – |
| O=C(COCc1ccc2nonc2c1)N1CCc2cc(S(=O)(=O)N3CCN(c4cc(Cl)cc(C(F)(F)F)c4)CC3)ccc21 [JH-LPH-79] | 37 | – | – |
| O=C(/C=C/CCCNC(=O)Nc1ccc(S(=O)(=O)N2CCN(c3cc(Cl)cc(C(F)(F)F)c3)CC2)cc1)NO [JH-LPH-64] | – | 20 (≈ 33.9 µM) | Percentage Activity of KpLpxH (vi/v0) ([1]; listed as 18 (JH-LPH-64)): 34 ± 7%; remaining activity at 0.1 µM [1]: 34 ± 7%; inhibition at 0.1 µM [1]: 66% |
| O=C(O)CCCCCNC(=O)Nc1ccc(S(=O)(=O)N2CCN(c3cc(Cl)cc(C(F)(F)F)c3)CC2)cc1 [JH-LPH-54] | – | – | Percentage Activity of KpLpxH (vi/v0) ([1]; listed as 12 (JH-LPH-54)): 57 ± 3%; remaining activity at 0.1 µM [1]: 57 ± 3%; inhibition at 0.1 µM [1]: 43% |
| CC(=O)N1CCc2cc(S(=O)(=O)N3CCN(c4cc(C(F)(F)F)ccn4)CC3)ccc21 [JH-LPH-86] | – | 0.125 (≈ 0.275 µM) | – |
| NCCNC(=O)N1CCc2cc(S(=O)(=O)N3CCN(c4cc(C(F)(F)F)cc(Cl)n4)CC3)ccc21 [JH-LPH-95] | – | 4 (≈ 7.51 µM) | – |
| NCC(=O)N1CCc2cc(S(=O)(=O)N3CCN(c4cc(Cl)cc(C(F)(F)F)c4)CC3)ccc21 [JH-LPH-71] | – | 8 (≈ 15.9 µM) | – |
| CC(=O)n1ccc2cc(S(=O)(=O)N3CCN(c4cc(Cl)cc(C(F)(F)F)c4)CC3)ccc21 [JH-LPH-42] | – | > 64 | – |
| NC(=O)N1CCc2cc(S(=O)(=O)N3CCN(c4cc(Cl)cc(C(F)(F)F)c4)CC3)ccc21 [JH-LPH-73] | 37 | 0.67 (≈ 1.37 µM) | – |
| CC(=O)N1CCc2cc(S(=O)(=O)N3CCN(c4nccc(C(F)(F)F)n4)CC3)ccc21 [JH-LPH-93] | 32 | 1.33 (≈ 2.92 µM) | – |
| CCOC(=O)c1ccc(N2CCN(S(=O)(=O)c3ccc4c(c3)CCN4C(C)=O)CC2)cc1 [JH-LPH-82] | – | > 64 | – |
| O=C(NO)c1ccc(-c2ccccc2C(=O)Nc2ccc(S(=O)(=O)N3CCN(c4cc(Cl)cc(C(F)(F)F)c4)CC3)cc2)cc1 [JH-LPH-80] | 431 | – | – |

| SMILES | IC50 [1, 3] [nM] | MIC [2, 4] [µg/mL] | further results |
| --- | --- | --- | --- |
| NCCCNC(=O)N1CCc2cc(S(=O)(=O)N3CCN(c4cc(C(F)(F)F)cc(Cl)n4)CC3)ccc21 [JH-LPH-98] | 24 | – | – |
| O=C(CCCn1cc(C(=O)Nc2ccc(S(=O)(=O)N3CCN(c4cc(Cl)cc(C(F)(F)F)c4)CC3)cc2)nn1)NO [JH-LPH-74] | – | > 64 | – |
| NC(=O)N1CCc2cc(S(=O)(=O)N3CCN(c4cc(C(F)(F)F)ccn4)CC3)ccc21 [JH-LPH-91] | 105 | 0.125 (≈ 0.274 µM) | – |
| O=C(CCCCCCC(=O)Nc1ccc(S(=O)(=O)N2CCN(c3cc(Cl)cc(C(F)(F)F)c3)CC2)cc1)NO [JH-LPH-65] | 13 | 12 (≈ 20.3 µM) | – |
| O=C(CN1CCOCC1)N1CCc2cc(S(=O)(=O)N3CCN(c4cc(Cl)cc(C(F)(F)F)c4)CC3)ccc21 [JH-LPH-70] | 62 | 10.7 (≈ 18.6 µM) | – |
| CCCCN1CCN(S(=O)(=O)c2ccc3c(c2)CCN3C(C)=O)CC1 [JH-LPH-84] | – | 32 (≈ 87.6 µM) | – |
| CS(=O)(=O)N1CCc2cc(S(=O)(=O)N3CCN(c4cc(Cl)cc(C(F)(F)F)c4)CC3)ccc21 [JH-LPH-47] | – | > 64 | – |
| O=C(CCCCNC(=O)N1CCc2cc(S(=O)(=O)N3CCN(c4cc(Cl)cc(C(F)(F)F)c4)CC3)ccc21)NO [JH-LPH-45] | 17 | 18.7 (≈ 30.9 µM) | IC50 [1]: 18 nM; Ki [1]: 7.3 nM; Percentage Activity of KpLpxH (vi/v0) ([1]; listed as 8 (JH-LPH-45)): 18 ± 1%; remaining activity at 0.1 µM [1]: 18 ± 1%; inhibition at 0.1 µM [1]: 82%; MIC ([2]; K. pneumoniae (ATCC 10031), in vitro, read-out: MIC): 18.7 µg/mL (≈ 31 µM) |
| CC(=O)N1CCc2cc(S(=O)(=O)N3CCN(c4cc(F)cc(C(F)(F)F)c4)CC3)ccc21 [JH-LPH-28] | 139 | 3 (≈ 6.36 µM) | – |
| C/C=C/CN1CCN(S(=O)(=O)c2ccc3c(c2)CCN3C(C)=O)CC1 [JH-LPH-83] | – | 64 (≈ 176 µM) | – |
| NC(=O)N1CCc2cc(S(=O)(=O)N3CCN(c4cc(Cl)cc(C(F)(F)F)c4)CC3)c(F)cc21 [JH-LPH-75] | – | > 64 | – |
| O=C(CCCCCC(=O)N1CCc2cc(S(=O)(=O)N3CCN(c4cc(Cl)cc(C(F)(F)F)c4)CC3)ccc21)NO [JH-LPH-46] | – | – | Percentage Activity of KpLpxH (vi/v0) ([1]; listed as 10 (JH-LPH-46)): 93 ± 7%; remaining activity at 0.1 µM [1]: 93 ± 7%; inhibition at 0.1 µM [1]: 7% |
| NCCCCNC(=O)N1CCc2cc(S(=O)(=O)N3CCN(c4cc(C(F)(F)F)cc(Cl)n4)CC3)ccc21 [JH-LPH-99] | 11 | – | – |
| O=C(CCCCCCC(O)Cn1cncn1)Nc1ccc(S(=O)(=O)N2CCN(c3cc(Cl)cc(C(F)(F)F)c3)CC2)cc1 (stereo not shown) [JH-LPH-68] | – | 28 (≈ 43.5 µM) | – |
| CN(C)CC(=O)N1CCc2cc(S(=O)(=O)N3CCN(c4cc(Cl)cc(C(F)(F)F)c4)CC3)ccc21 [JH-LPH-72] | – | > 64 | – |
| O=C(NCCn1cc(C(=O)O)nn1)Nc1ccc(S(=O)(=O)N2CCN(c3cc(Cl)cc(C(F)(F)F)c3)CC2)cc1 [JH-LPH-61] | – | > 64 | – |
| CS(=O)(=O)Nc1ccc(S(=O)(=O)N2CCN(c3cc(Cl)cc(C(F)(F)F)c3)CC2)cc1 [JH-LPH-77] | – | > 64 | – |
| NC(=O)N1CCc2cc(S(=O)(=O)N3CCN(c4cccc(C(F)(F)F)n4)CC3)ccc21 [JH-LPH-94] | – | > 64 | – |
| CC(=O)N1CCc2cc(S(=O)(=O)N3CCN(c4nc(C(F)(F)F)cs4)CC3)ccc21 [JH-LPH-85] | – | 12 (≈ 26.1 µM) | – |
